What was measured:
Fas-FADD interaction = Fas-FADD interaction in serum-deprived neuron-rich cultures (immunoprecipitation, Western blot); format: cell-based, mouse; conditions: deprived of serum for 8 hr
Description: (B) Neuron-rich cortical cell cultures (DIV 7) were deprived of serum, alone or with addition of 100 μM zVADfmk, 1 μM 2-hydroxy TTBA, or 5 mM Li^+. Neuronal death was analyzed 24 hr later by counting viable neurons excluding trypan (mean±SEM, n=4). *, Significant difference from the relevant control (serum deprivation alone), p<0.05 using ANOVA and Student-Neuman-Keuls test. (C) Western blot analysis of FADD antibody following immunoprecipitation with Fas antibody in the same samples above.
Additional experiments were performed to examine if targeting both neuronal cell necrosis and apoptosis would result in synergic neuroprotection in […] transgenic mice. […] Neuronal cell apoptosis was induced by serum deprivation in neuron-rich cortical cell cultures as reported, which was prevented by addition of 5 mM Li^+ as well as zVADfmk, a broad spectrum inhibitor of caspases (FIG. 5B). […] Additional experiments were performed to examine if Li^+ would prevent Fas signaling pathway. […] This implies that 2-Hydroxy-TTBA and Li^+ blocks oxidative neuronal cell necrosis and apoptosis, respectively.

beta-amyloid (Aβ42) = experiment: suppression of beta-amyloid (Aβ42) production in CHO cells (ELISA); format: cell-based, Chinese hamster; conditions: Cricetulus griseus; CHO cells stably transfected with human wild APP695 and PS1ΔExon9; culture medium, ELISA; read-out: Aβ42 lowering effect (IC50)
Description: The suppressing effects of many drug candidates on production of beta-amyloid were evaluated in CHO cell line having the increased level of beta-amyloid. Results were shown as IC50 (uM) (Item C of Table 3 below).
In the Table 3, A, B and C mean neuron protecting effect against Fe^+2, suppressing effect on production of NO and suppressing effect on production of beta-amyloid, respectively. The term “ND” means “Not determined.”
Cells were treated with increasing concentrations of various chemicals in Chinese hamster ovary (CHO) cells stably transfected with human wild APP695 and the PS1ΔExon9, and analyzed Aβ42 levels in culture medium by colorimetric sandwich ELISA kit (BIOSOURCE, Camarillo, Calif.). In CHO cells, IC50 of Chemical—01-08 on Aβ42 lowering effect was 20-100 uM (Table 4).

[1] = tested on: reactive oxygen species (ROS) in cortical cell cultures; experiment: ROS production in cortical cell cultures exposed to FeCl2 (DCF fluorescence); format: cell-based; conditions: 1 uM; 50 uM FeCl2
Description: It was evaluated whether chemical 01 suppresses reactive oxygen species (ROS) increased by FeCl2. Cortical cell cultures (DIV 11-14) were continuously exposed to 50 uM FeCl2 alone or with inclusion of 1 uM of chemical 01. Then, the fluorescent intensity of 6-carboxy-2′,7′-dichlorofluorescin diacetate (oxidation product of DCDHF-DA) was evaluated (mean±SEM, n=3).

IL-1β = experiment: LPS-induced IL-1β production in BV2 cells; format: cell-based
Description: (§1) Suppressing effects of chemical 01 in BV2 cell lines on production of IL-1β, IL-6 or TNF-α were evaluated. BV2 cells were exposed to 1 ug/ml LPS (inflammation-inducing material) with inclusion of chemical 01 at indicated doses. After 4 hours, supernatant were collected and concentrations of TNF-a were evaluated. In addition, BV2 cells were treated by the same method, and 24 hours later, supernatant were collected and concentrations of IL-1β and IL-6 were evaluated (mean±SEM, n=3). BV2 cells treated with LPS only were used as control.

TNF-α = experiment: LPS-induced TNF-α production in BV2 cells; format: cell-based; conditions: 100 uM; 1 ug/ml LPS, 4 hours
Description: as §1

Tg2576 transgenic mice = experiment: brain Aβ42/Aβ40 levels in Tg2576 transgenic mice (ELISA); format: in vivo, mouse; conditions: 25 mg/kg/d for 8 months (9~17 months)
Description: 17 month-old Tg2576 transgenic mice were fed chow alone, or containing 25 mg/kg/day of chemical 01, for 8 months before being sacrificed (9˜17 months). The level of Aβ42 or Aβ40 protein was quantitatively analyzed by colorimetric sandwich ELISA kit (BIOSOURCE, Camarillo, Calif.) (mean±SEM, n=2).
17 month-old Tg2576 transgenic mice were fed chow alone (saline only), or containing 25 mg/kg/day of chemical—01, for 8 months before being sacrificed (9˜17 month). SDS-soluble/insoluble Aβ42 or Aβ40 levels were analyzed by colorimetric sandwich ELISA kit (BIOSOURCE, Camarillo, Calif.).

G93A mouse = experiment: microglia number and activation in G93A mouse (TOMATO Lectin); format: in vivo; conditions: 5 mg/kg/day or 20 mg/kg/day; lumbar ventral horn
Description: Number and activation degree of microglia (a marker of inflammation in brain disease animal model) expressed in the lumbar ventral horn of G93A mouse were evaluated with TOMATO Lectin dye. In G93A mouse, number of microglia was increased and microglia was more activated compared to the wild type mouse. Treatment with 5 mg/kg/day or 20 mg/kg/day of chemical 01 decreased the increase of number and activation degree of microglia (FIG. 13F).

[2] = tested on: cerebral cortical cell cultures; experiment: nerve cell death by MPP+ in cerebral cortical cell cultures (LDH); format: cell-based; conditions: 50 uM MPP+
Description: Cerebral cortical cell cultures (DIV 13˜15) were continuously exposed to 50 uM MPP+ alone or with inclusion of 0.03-3 uM of chemical 01. After 24 hours, activity of LDH released outside cell was evaluated to quantify death of nerve cell (mean±SEM, n=4 culture well/each group).

C57/BL6 mice = experiment: microglia activation in MPTP mouse model of Parkinson's disease (CD11b); format: in vivo; conditions: 50 mg/kg intraperitoneal, MPTP 40 mg/kg s.c., two days
Description: MPTP (40 mg/kg) was subcutaneously injected into C57/BL6 mice (male/8 week-old). Some of the mice were administered with 50 mg/kg of chemical 01 through intraperitoneal injection 30 minutes before the injection of MPTP everyday. Two days later, brain tissue was extracted and immunostained with CD11b. After reaction, DAB (diaminobenzidine) was used for chromograph, and then the activation degree of microglia (a marker of inflammation in brain disease model) was evaluated with optical microscope (FIG. 14E).

With O=C(O)c1cc(NCc2c(F)c(F)c(C(F)(F)F)c(F)c2F)ccc1O [2-Hydroxy-TTBA, 2-hydroxy-5-(2,3,5,6-tetrafluoro-4-trifluoromethyl-benzylamino)-benzoic acid] the “Fas-FADD interaction, effect in words” value (Fas-FADD interaction) was “not”.

In the case of O=C(O)c1cc(NCCc2ccc(C(F)(F)F)cc2)ccc1O [chemical 01, 2-Hydroxy-5-[2-(4-trifluoromethyl-phenyl)-ethylamino]-benzoic acid], the IC50 (beta-amyloid (Aβ42)) is reported as 19.6 µM, the “production of ROS in cell increased by FeCl2” value [1] is reported as “suppressed” and the “decrease of IL-1β released into media” value (IL-1β; 100 uM, 1 ug/ml LPS, 24 hours) is reported as “about 80%”. The “IL-1β decrease, in words” value (IL-1β; 1~100 uM) was “dose-dependent manner”, the “decrease of TNF-α released into media” value (TNF-α) was ~70% and the “SDS-soluble/insoluble Aβ42 and Aβ40 levels, in words” value (Tg2576 transgenic mice) was “decreased”. For the same compound, the “SDS-soluble/insoluble Aβ42 and Aβ40 levels, in words” value (Tg2576 transgenic mice; listed as chemical—01) was “reduced”, the “increase of number and activation degree of microglia” value (G93A mouse) was “decreased” and the IC50 ([2]; 24 hours, LDH, read-out: IC50, nerve cell death caused by MPP+) was 0.057 µM. For the same compound, the “nerve cell death caused by MPP+, in words” value ([2]; 0.03-3 uM) was “dose-dependent manner” and the “activity of microglia caused by MPTP” value (C57/BL6 mice) was “decreased”.

— patent US20120301551A1, “COMPOUNDS AND COMPOSITIONS FOR TREATING NEURONAL DEATH OR NEUROLOGICAL DYSFUNCTION” (Neurotech Pharmaceuticals Co., Ltd., priority 2005, published 2012)
